# From US11377442B2, “Small molecule agonists and antagonists of NR2F6 activity” (ZANDER THERAPEUTICS, INC., priority 2016, dated 2022)
# Like-named read-outs stand apart in the source and are kept apart here.
# Tests used:
# [1] = mouse, in vivo
# Renilla [2] = experiment: Renilla signal in NR2F6 agonist screening, cmpd/DMSO; assay type: cell-based; conditions: Renilla
# NR2F6 LBD = biological target: T1, NR2F6 LBD (Homo sapiens, UniProt P10588); experiment: NR2F6 LBD transient transfection; assay type: cell-based
# T1 construct: expressed in transfected cells
# T1 sequence (P10588 165-393 limits assumed): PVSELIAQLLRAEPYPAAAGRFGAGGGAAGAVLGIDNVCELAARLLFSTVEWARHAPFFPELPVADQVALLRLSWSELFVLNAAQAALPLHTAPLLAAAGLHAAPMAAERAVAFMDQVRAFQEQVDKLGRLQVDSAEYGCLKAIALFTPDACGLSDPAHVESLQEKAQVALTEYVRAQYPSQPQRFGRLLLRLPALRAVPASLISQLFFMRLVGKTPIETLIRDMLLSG
# Method in brief: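 LBD-transfected cells treated at 40, 10, 2 and 0.5 μM (4 replicates); cytotoxicity measured in parallel, normalized to DMSO (0%) and zero signal (100%). Higher concentrations excluded where signal loss reflected toxicity.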
# HEK293 pGL4 = experiment: Firefly_pGL signal, cmpd/DMSO (pGL4 control cells); assay type: cell-based; conditions: Homo sapiens
# [3] = Microsomal stability in rat liver microsomes; assay type: in vitro ADME
# [4] = Stability in human plasma; assay type: in vitro ADME
# NR2F6 = biological target: T2, NR2F6 (Homo sapiens, UniProt P10588); experiment: NR2F6 agonist screening, Firefly signal cmpd/DMSO; assay type: cell-based
# T2 construct: expressed in transfected cells; also transient transfection
# T2 sequence (P10588 1-404): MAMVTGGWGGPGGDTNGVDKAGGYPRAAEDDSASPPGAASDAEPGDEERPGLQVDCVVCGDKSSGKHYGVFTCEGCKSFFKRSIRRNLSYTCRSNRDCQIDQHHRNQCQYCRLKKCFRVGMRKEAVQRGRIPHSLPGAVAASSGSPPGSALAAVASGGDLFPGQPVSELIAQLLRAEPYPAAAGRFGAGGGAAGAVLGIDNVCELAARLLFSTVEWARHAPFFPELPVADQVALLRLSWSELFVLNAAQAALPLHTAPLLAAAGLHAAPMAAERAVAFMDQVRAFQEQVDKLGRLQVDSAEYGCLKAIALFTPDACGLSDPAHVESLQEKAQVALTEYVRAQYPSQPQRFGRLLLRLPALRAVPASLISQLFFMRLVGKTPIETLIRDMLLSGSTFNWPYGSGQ
# pH stability = assay type: physicochemical
# pH solubility = assay type: physicochemical; conditions: for solubility: aqueous buffer, OD 250 nm
# Renilla [5] = experiment: Renilla signal, LBD, cmpd/DMSO (NR2F6 LBD transfected cells); assay type: cell-based
# Stability in rat plasma = assay type: in vitro ADME
# [6] = read-out: Renilla F4, cmpd/DMSO (mean)
# [7] = F4, 1% FBS, read-out: Renilla, F4, 1% FBS, cmpd/DMSO (mean)
# [8] = F4, 10% FBS, read-out: Renilla, F4, 10% FBS, cmpd/DMSO (mean)
# [9] = HEK293, 0.5 uM, read-out: Firefly pGL4, cmpd/DMSO (mean)
# [10] = HEK293, 2 uM, read-out: Firefly pGL4, cmpd/DMSO (mean)
# [11] = HEK293, 10 uM, read-out: Firefly pGL4, cmpd/DMSO (mean)
# [12] = HEK293, 40 uM, read-out: Firefly pGL4, cmpd/DMSO (mean)
# [13] = HEK293, pGL4, 1% FBS, 0.5 uM, read-out: Firefly, pGL4, 1% FBS, cmpd/DMSO (mean)
# [14] = HEK293, pGL4, 1% FBS, 2 uM, read-out: Firefly, pGL4, 1% FBS, cmpd/DMSO (mean)
# [15] = HEK293, pGL4, 1% FBS, 10 uM, read-out: Firefly, pGL4, 1% FBS, cmpd/DMSO (mean)
# [16] = HEK293, pGL4, 1% FBS, 40 uM, read-out: Firefly, pGL4, 1% FBS, cmpd/DMSO (mean)
# [17] = HEK293, pGL4, 10% FBS, 0.5 uM, read-out: Firefly, pGL4, 10% FBS, cmpd/DMSO (mean)
# [18] = HEK293, pGL4, 10% FBS, 2 uM, read-out: Firefly, pGL4, 10% FBS, cmpd/DMSO (mean)
# [19] = HEK293, pGL4, 10% FBS, 10 uM, read-out: Firefly, pGL4, 10% FBS, cmpd/DMSO (mean)
# [20] = HEK293, pGL4, 10% FBS, 40 uM, read-out: Firefly, pGL4, 10% FBS, cmpd/DMSO (mean)
smiles,measurement,setting,value
COCCN[C@H]1CS(=O)(=O)C[C@@H]1S(=O)(=O)c1ccc(Cl)cc1 [Compound D136],MTD and acute toxicity,[1],no toxicity was observed
same,fold induction at 0.5 µM,Renilla [2]; [6],0.9
same,fold induction at 2 µM,Renilla [2]; [6],1.1
same,fold induction at 10 µM,Renilla [2]; [6],1.4
same,fold induction at 40 µM,Renilla [2]; [6],1.7
same,fold induction at 0.5 µM,Renilla [2]; [7],1.1
same,fold induction at 2 µM,Renilla [2]; [7],1.1
same,fold induction at 10 µM,Renilla [2]; [7],1.5
same,fold induction at 40 µM,Renilla [2]; [7],2.4
same,fold induction at 0.5 µM,Renilla [2]; [8],0.9
same,fold induction at 2 µM,Renilla [2]; [8],0.9
same,fold induction at 10 µM,Renilla [2]; [8],1.2
same,fold induction at 40 µM,Renilla [2]; [8],3.3
same,"Firefly LBD, cmpd/DMSO (mean)",NR2F6 LBD; 0.5 uM,1.0
same,"Firefly LBD, cmpd/DMSO (mean)",NR2F6 LBD; 2 uM,1.5
same,"Firefly LBD, cmpd/DMSO (mean)",NR2F6 LBD; 10 uM,2.6
same,"Firefly LBD, cmpd/DMSO (mean)",NR2F6 LBD; 40 uM,2.9
same,activation of ligand binding domain-only NR2F6,NR2F6 LBD; cellular assays,Activates
same,fold induction at 0.5 µM,HEK293 pGL4; [9],1.1
same,fold induction at 2 µM,HEK293 pGL4; [10],1
same,fold induction at 10 µM,HEK293 pGL4; [11],1.8
same,fold induction at 40 µM,HEK293 pGL4; [12],2.6
same,fold induction at 0.5 µM,HEK293 pGL4; [13],1.1
same,fold induction at 2 µM,HEK293 pGL4; [14],0.9
same,fold induction at 10 µM,HEK293 pGL4; [15],1.3
same,fold induction at 40 µM,HEK293 pGL4; [16],1.6
same,fold induction at 0.5 µM,HEK293 pGL4; [17],1.3
same,fold induction at 2 µM,HEK293 pGL4; [18],1.1
same,fold induction at 10 µM,HEK293 pGL4; [19],1.8
same,fold induction at 40 µM,HEK293 pGL4; [20],3.8
same,stability in presence of rat liver microsomes,[3],Extremely stable
same,stability in human plasma,[4],Stable
same,"Firefly F4, cmpd/DMSO (mean)",NR2F6; 0.5 uM,1.5
same,"Firefly F4, cmpd/DMSO (mean)",NR2F6; 2 uM,1.1
same,"Firefly F4, cmpd/DMSO (mean)",NR2F6; 10 uM,2.7
same,"Firefly F4, cmpd/DMSO (mean)",NR2F6; 40 uM,5.2
same,"F4, Firefly/Renilla for S/B(F4) > 3","NR2F6; 1% FBS, 40 uM",3.1
same,"Firefly, F4/pGL4 for S/B(F4) > 3","NR2F6; 1% FBS, 40 uM",4.7
same,"F4, Firefly/Renilla for S/B(F4) > 3","NR2F6; 10% FBS, 40 uM",3.5
same,"Firefly, F4/pGL4 for S/B(F4) > 3","NR2F6; 10% FBS, 40 uM",3.0
same,"Firefly, F4, 1% FBS, cmpd/DMSO (mean)","NR2F6; 1% FBS, 0.5 uM",0.8
same,"Firefly, F4, 1% FBS, cmpd/DMSO (mean)","NR2F6; 1% FBS, 2 uM",1.0
same,"Firefly, F4, 1% FBS, cmpd/DMSO (mean)","NR2F6; 1% FBS, 10 uM",2.4
same,"Firefly, F4, 1% FBS, cmpd/DMSO (mean)","NR2F6; 1% FBS, 40 uM",7.4
same,"Firefly, F4, 10% FBS, cmpd/DMSO (mean)","NR2F6; 10% FBS, 0.5 uM",0.4
same,"Firefly, F4, 10% FBS, cmpd/DMSO (mean)","NR2F6; 10% FBS, 2 uM",1.4
same,"Firefly, F4, 10% FBS, cmpd/DMSO (mean)","NR2F6; 10% FBS, 10 uM",1.9
same,"Firefly, F4, 10% FBS, cmpd/DMSO (mean)","NR2F6; 10% FBS, 40 uM",12
same,activation of full-length NR2F6,NR2F6; cellular assays,Activates
same,pH stability at pH2,pH stability; pH2,extremely stable
same,pH stability at pH7,pH stability; pH7,extremely stable
same,solubility,pH solubility; pH 2,660 µg/mL
same,solubility,pH solubility; pH 4,220 µg/mL
same,solubility,pH solubility; pH 7,190 µg/mL
same,solubility at pH2,pH solubility; pH2,soluble
same,solubility at pH4,pH solubility; pH4,soluble
same,solubility at pH7.4,pH solubility; pH7.4,soluble
same,"Renilla LBD, cmpd/DMSO (mean)",Renilla [5]; 0.5 uM,1.1
same,"Renilla LBD, cmpd/DMSO (mean)",Renilla [5]; 2 uM,1.0
same,"Renilla LBD, cmpd/DMSO (mean)",Renilla [5]; 10 uM,1.0
same,"Renilla LBD, cmpd/DMSO (mean)",Renilla [5]; 40 uM,0.6
same,stability in rat plasma,Stability in rat plasma,Stable
CC(C)OCCCN[C@H]1CS(=O)(=O)C[C@@H]1S(=O)(=O)c1ccc(Cl)cc1 [Compound D138],fold induction at 0.5 µM,Renilla [2]; [6],0.8
same,fold induction at 2 µM,Renilla [2]; [6],1
same,fold induction at 10 µM,Renilla [2]; [6],1.2
same,fold induction at 40 µM,Renilla [2]; [6],2.3
same,fold induction at 0.5 µM,Renilla [2]; [7],1.3
same,fold induction at 2 µM,Renilla [2]; [7],1.4
same,fold induction at 10 µM,Renilla [2]; [7],1.9
same,fold induction at 40 µM,Renilla [2]; [7],2.9
same,fold induction at 0.5 µM,Renilla [2]; [8],1.4
same,fold induction at 2 µM,Renilla [2]; [8],1.4
same,fold induction at 10 µM,Renilla [2]; [8],2
same,fold induction at 40 µM,Renilla [2]; [8],3.6
same,"Firefly LBD, cmpd/DMSO (mean)",NR2F6 LBD; 0.5 uM,1.3
same,"Firefly LBD, cmpd/DMSO (mean)",NR2F6 LBD; 2 uM,1.8
same,"Firefly LBD, cmpd/DMSO (mean)",NR2F6 LBD; 10 uM,3.7
same,"Firefly LBD, cmpd/DMSO (mean)",NR2F6 LBD; 40 uM,0.4
same,fold induction at 0.5 µM,HEK293 pGL4; [9],0.9
same,fold induction at 2 µM,HEK293 pGL4; [10],0.9
same,fold induction at 10 µM,HEK293 pGL4; [11],1.5
same,fold induction at 40 µM,HEK293 pGL4; [12],1.5
same,fold induction at 0.5 µM,HEK293 pGL4; [13],1
same,fold induction at 2 µM,HEK293 pGL4; [14],1
same,fold induction at 10 µM,HEK293 pGL4; [15],1.6
same,fold induction at 40 µM,HEK293 pGL4; [16],1.7
same,fold induction at 0.5 µM,HEK293 pGL4; [17],1.1
same,fold induction at 2 µM,HEK293 pGL4; [18],1
same,fold induction at 10 µM,HEK293 pGL4; [19],1.7
same,fold induction at 40 µM,HEK293 pGL4; [20],3.6
same,"Firefly F4, cmpd/DMSO (mean)",NR2F6; 0.5 uM,1.0
same,"Firefly F4, cmpd/DMSO (mean)",NR2F6; 2 uM,1.1
same,"Firefly F4, cmpd/DMSO (mean)",NR2F6; 10 uM,2.6
same,"Firefly F4, cmpd/DMSO (mean)",NR2F6; 40 uM,1.7
same,"F4, Firefly/Renilla for S/B(F4) > 3","NR2F6; 1% FBS, 10 uM",2.2
same,"Firefly, F4/pGL4 for S/B(F4) > 3","NR2F6; 1% FBS, 10 uM",2.7
same,"F4, Firefly/Renilla for S/B(F4) > 3","NR2F6; 1% FBS, 40 uM",1.1
same,"Firefly, F4/pGL4 for S/B(F4) > 3","NR2F6; 1% FBS, 40 uM",1.9
same,"F4, Firefly/Renilla for S/B(F4) > 3","NR2F6; 10% FBS, 10 uM",1.6
same,"Firefly, F4/pGL4 for S/B(F4) > 3","NR2F6; 10% FBS, 10 uM",1.8
same,"F4, Firefly/Renilla for S/B(F4) > 3","NR2F6; 10% FBS, 40 uM",3.2
same,"Firefly, F4/pGL4 for S/B(F4) > 3","NR2F6; 10% FBS, 40 uM",3.2
same,"Firefly, F4, 1% FBS, cmpd/DMSO (mean)","NR2F6; 1% FBS, 0.5 uM",0.8
same,"Firefly, F4, 1% FBS, cmpd/DMSO (mean)","NR2F6; 1% FBS, 2 uM",1.9
same,"Firefly, F4, 1% FBS, cmpd/DMSO (mean)","NR2F6; 1% FBS, 10 uM",4.2
same,"Firefly, F4, 1% FBS, cmpd/DMSO (mean)","NR2F6; 1% FBS, 40 uM",3.3
same,"Firefly, F4, 10% FBS, cmpd/DMSO (mean)","NR2F6; 10% FBS, 0.5 uM",1.8
same,"Firefly, F4, 10% FBS, cmpd/DMSO (mean)","NR2F6; 10% FBS, 2 uM",1.3
same,"Firefly, F4, 10% FBS, cmpd/DMSO (mean)","NR2F6; 10% FBS, 10 uM",3.1
same,"Firefly, F4, 10% FBS, cmpd/DMSO (mean)","NR2F6; 10% FBS, 40 uM",12
same,"Renilla LBD, cmpd/DMSO (mean)",Renilla [5]; 0.5 uM,0.9
same,"Renilla LBD, cmpd/DMSO (mean)",Renilla [5]; 2 uM,1.1
same,"Renilla LBD, cmpd/DMSO (mean)",Renilla [5]; 10 uM,0.9
same,"Renilla LBD, cmpd/DMSO (mean)",Renilla [5]; 40 uM,0.3
